Measured values: patent US9878015B2, “Pharmaceutical compositions and methods for the treatment of metastatic cancer” (IMMUNE SYSTEM KEY LTD., priority 2013, dated 2018)
Entries after “also recorded” stand apart in the source; their conditions may differ. Where no end group is shown, it is not given here.

What was measured:
tumor = conditions: adult Balb/C mice model; cited from earlier work
[1] = test system: human adenocarcinoma pancreatic cancer cells; experiment: Cell migration assay after 48 hours pre-incubation with peptide; format: cell-based; conditions: 25 μg/ml peptide for 48 hours before assay; 27 hours vs 1 hour; FIG. 3, FIG. 4
Method: (§1) Human adenocarcinoma pancreatic cancer cells were grown until reaching 70-80% cell density in the flask and detached from the flask using Trypsin EDTA as described above. Cells suspended in medium and Trypsin were then centrifuged 10 minutes at 300 g (4° C.) and re-suspended in 2 ml fresh medium (as described for the BrdU incorporation assay above).
(§2) Alternatively, Dulbecco's modification of Eagle's medium (DMEM, Biological Industries cat no. 01-055-1A) supplemented with 50 ml FBS (Biological industries cat no. 04-121-1A), 5 ml Hepes 1M (Biological industries cat no. 03-025-1C), 0.5 ml Amphotericin B 2500 μg/ml (Biological industries cat no. 03-029-1) and 5 ml Gentamycin sulfate 50 mg/ml (Biological industries cat no. 03-035-1) was used for cell culturing and re-suspension and the cells were re-suspended to a final concentration of 100,000 cells/ml medium.
Alternatively, the supernatant was discarded and replaced by 200 μl DMEM containing 2.5% 1-BS and the required treatment, namely control (without Nerofe), 10, 25 or 50 μg/ml Nerofe. The cells were then incubated at 37° C. for 48 hours in an incubator.
When the cells reached 70-80% density, the supernatant was discarded and the gel was removed from the center of the well, without affecting the attachment of cells as described in the manufacturer's protocol. […]

[2] = test system: tissue plasminogen activator (TPA) secreted by human adenocarcinoma pancreatic cancer cells; experiment: Tissue type plasminogen activator (TPA) human ELISA assay on cell supernatant; format: cell-based; conditions: 1-50 μg/ml peptide, 24 hours; cell line 1, 2 and 3; FIG. 1
Method: Tissue Type Plasminogen Activator (TPA) Human ELISA Assay
(§3) Human adenocarcinoma pancreatic cancer cells were grown until reaching 70-80% density in the flask and were detached from the flask using Trypsin EDTA as described above. Cells suspended in medium and Trypsin were then centrifuged and re-suspended in 2 ml fresh medium (as described for the BrdU incorporation assay, above).
The cells were then fluidized and 3 ml medium were added to the cell suspension such that the cells were re-suspended in a total volume of 5 ml medium. Cells were counted and diluted to a concentration of 50,000 cells/ml medium. Next, the cells were placed in each well of a 6 well plate (Nunc cat no. 140675), by placing 2 ml cells culture per well such that each well contains 100,000 cells. The cells were next incubated over-night at 37° C. in the incubator.
The supernatant was discarded and replaced by 1 ml RPMI medium containing 2.5% FBS. Cells were then incubated for 24 hours or 48 hours at 37° C. in the presence of the Nerofe peptide at the final concentrations of 1, 10, 25 and 50 μg/ml. […]
Next, a TPA ELISA assay was performed as follows: the supernatant was thawed and kept on ice, then diluted 1:15 with the TPA diluents provided with the kit (x1N, Abcam cat no. ab108914). The procedure was continued according to the manufacturer's protocol and ELISA plates were read at an optical density (O.D.) of 450/590.

[3] = test system: various cancer cells of hematopoietic origin; conditions: inhibitory effect defined as at least 40% inhibition vs control; cited from earlier work
[4] = test system: soluble ST2 (sST2) in human breast cancer cells (MDA-MB-231); experiment: Soluble ST2 (sST2) ELISA assay, breast cancer cells; format: cell-based; conditions: MDA-MB-231, similar assay conditions, data not shown
Method: (§4) Soluble ST2 (sST2) ELISA Assay
as §3, with “cells and human breast cancer cells (MDA-MB-231)” for “cells”, “70-80% cell” for “70-80%”, “assay” for “assay,”
(§5) The cells were then fluidized and 3 ml medium were added to the cell suspension such that the cells were re-suspended in a total volume of 5 ml medium. The cells were then counted and diluted to a concentration of 50,000 cells/ml medium. Cells at 2 ml per plate were placed in each well of a 6 well plate such that each well contained 100,000 cells. The cells were incubated over-night in 37° C. in the incubator.
(§6) The supernatant was discarded and replaced by 1 ml RPMI medium containing 2.5% FBS. The cells were then incubated for 24 or 48 hours in 37° C. in the presence of the Nerofe peptide at the final concentrations of 1, 10, 25 and 50 μg/ml. […]
(§7) Detecting of sST2 was performed by diluted anti-sST2 Affinity purified antibody (Genmed, project ID 35622 B-Form) 1:100 in diluent (0.05% TW-20, 0.1% BSA in PBS), where 100 μl of the detection antibody was loaded on each well. […] Plate absorbance was performed in a microplate reader at O.D. of 450/590 nm.

[5] = test system: human adenocarcinoma pancreatic cancer cells; experiment: Bromodeoxyuridine (BrdU) incorporation assay (cell proliferation); format: cell-based; conditions: 1, 10, 25 and 50 μg/ml peptide vs control; no correlation with concentration
Method: Bromodeoxyuridine (BrdU) Incorporation Assay
Human adenocarcinoma pancreatic cancer cells and human breast cancer cells were grown until reaching 70-80% density in the flask and detached from the flask using Trypsin EDTA as described above (the above protocol for cell culturing was used until the step of adding 10 ml medium to the Trypsin-treated cells). The cells suspended in medium and Trypsin were then transferred into a 50 ml conical tube and centrifuged at 300 g (10 min, 4° C.). The supernatant was then discarded and the cell pellet was re-suspended in fresh medium (2 ml medium prepared as described above).
The cells were then fluidized and additional 3 ml medium were added to the cell suspension such that the cells were re-suspended in a total volume of 5 ml medium. The cells were then counted and diluted to a concentration of 20,000 cells/ml medium. Next, the cells were placed in a 96 well plate (Nunc cat no. 167008), placing 100 μl cell suspension per well, such that each well contained 2000 cells. The cells were then incubated over-night in 37° C. in the incubator.
The concentrated Nerofe peptide was suspended in a total volume of 100 μl medium and added to the assayed cells in the 96-well plate to a final concentration of 1, 10, 25 and 50 μg/ml. Control (background) assays were performed in the absence of the peptide, namely, 100 μl medium was added to control cells. […]

[6] = test system: soluble ST2 (sST2) secreted by human adenocarcinoma pancreatic cancer cells; experiment: Soluble ST2 (sST2) ELISA assay, pancreatic cancer cells; format: cell-based; conditions: 1-50 μg/ml peptide; all tested cells; FIG. 2
Method: as §4
as §3, with “cells and human breast cancer cells (MDA-MB-231)” for “cells”, “70-80% cell” for “70-80%”, “assay” for “assay,”
as §5, §6, §7

[7] = test system: adenocarcinoma pancreatic cancer cells, cell line 2; experiment: Radius cell migration assay, cell line 2; format: cell-based, human; conditions: cell line 2, Nerofe 10 μg/ml
Method: (§8) Cell Migration Assay of Human Cancer Cell
as §1
(§9) The cells were then fluidized and 3 ml medium were added such that the cells were suspended in a volume of 5 ml medium and subsequently counted and diluted to a concentration of 150,000 or 300,000 cells/ml medium.
as §2
(§10) A radius 96-well Cell Migration Assay plate (Cell Biolabs Inc. cat no. CBA-126) was prepared according to the manufacturer's protocol and each well was loaded with 100 μl cells such that each well contained 10,000, 15,000 or 30,000 cells. […]

[8] = test system: adenocarcinoma pancreatic cancer cells, cell line 1; experiment: Radius cell migration assay, cell line 1; format: cell-based, human; conditions: cell line 1, Nerofe 10 μg/ml
Method: as §8, §1, §9, §2, §10

[9] = test system: vascular endothelial growth factor (VEGF); experiment: Clinical study: serum level of VEGF in cancer patients (ELISA); format: in vivo, human
Method: Therefore a clinical study that follows the serum levels of VEGF was conducted in cancer patients that were administered with the peptide Nerofe. Patients participating in the study were diagnosed with various cancer types, namely colon, colorectal, spindle cell neoplasm, pancreas, small intestine, non small cell lung carcinoma, hepatic carcinoma, colon adenocarcinoma and rectal adenocarcinoma, as summarized in Table 3 below.
Patients were included in at least one of Cohort 1, Cohort 2, Cohort 3 and Cohort 4 and received doses of […] (about 0.16, 0.32, 0.64 or 1.28 mg/kg body weight) of the peptide Nerofe, respectively, at the indicated time points.
Serum levels of VEGF were measured in blood samples obtained form these patients using an Elisa kit for human VEFG (R&D systems) and the results are presented in FIG. 5 (for the patients of Cohort 1 and Cohort 2) and in FIG. 6 (for the patients of Cohort 3 and Cohort 4).

Question: For “LHLWLSGEPVQSSGTKDMRSKSDSKRVSDKQLISKAVWWTFFLPSTLWERK (isolated synthetic peptide (fragment of T 101 peptide)) [T101 peptide, Full length thymus peptide, devoid of its N-terminal 33 amino acids; 51 amino acids long]”, which tumor size (tumor) is on record?
Answer: significantly reduce tumor size

Question: For “WWTFFLPSTLWERK [Nerofe, C-terminal 14 all D amino acid fragment of the full T101 peptide, …]”, which “migration of cells into cell-free area” value [1] is on record?
Answer: substantially inhibited

Question: And the “level of secreted TPA compared to control cells” value [2]?
Answer: lower levels of secreted TPA

Question: What about the cell proliferation [3] of the same sequence?
Answer: inhibit cell proliferation

Question: What about the “decrease in the level of sST2” value [4] of the same sequence?
Answer: about 80%

Question: And the “inhibition of BrdU incorporation” value [5]?
Answer: up to 26%

Question: And the “level of sST2 compared to cells not incubated with the peptide” value [6]?
Answer: lower levels of sST2; also recorded: dose-dependent

Question: And the “% inhibition of migration” value ([7]; 8 hours)?
Answer: 82%

Question: And the “% Migration after 8 hours” value ([7]; control = 100)?
Answer: 18%

Question: What about the “% inhibition of migration” value ([8]; 8 hours) of the same sequence?
Answer: 30%

Question: What about the “% Migration after 8 hours” value ([8]; control = 100) of the same sequence?
Answer: 70%

Question: And the “change of serum level of VEGF” value ([9]; cancer patients, Cohort 1 and Cohort 2, 6 or 12 mg/m^2, FIG. 5)?
Answer: increase

Question: And the “decrease of serum level of VEGF” value ([9]; cancer patients, Cohort 3 and Cohort 4, 24 or 48 mg/m^2, FIG. 6)?
Answer: 30-40%

Question: And the “decrease of serum level of VEGF in single patients” value ([9]; patients 13 (small intestine) and 19 (rectal adenocarcinoma))?
Answer: particularly significant
